Reference: patent US20240092936A1, “METHODS OF TREATING HER2 POSITIVE BREAST CANCER WITH TUCATINIB IN COMBINATION WITH CAPECITABINE AND TRASTUZUMAB” (Seagen Inc., priority 2019, published 2024)
Entries after “also recorded” stand apart in the source; their conditions may differ. Read-outs that look alike come from different tables or passages of the source.

How the values were obtained:
[1] = cited from earlier work
[2] = system: patients on tucatinib studies; assay: Safety observations in earlier tucatinib studies (e.g. ONT-380-005); format: in vivo, human; conditions: patients taking tucatinib alone or in combination
Source text: Trastuzumab and other HER2-targeted therapies were known to increase the risk of the development of asymptomatic and symptomatic declines in LVEF. […] Cardiac function was therefore monitored closely.
Monitoring of liver function tests was required for any patient taking tucatinib.
Patients with brain metastases were at risk for occurrence of AEs due to the presence of CNS lesions, progression of disease and toxicities potentially related to study treatment. On occasion, treatment of brain metastases with systemic or radiation therapy had been associated with localized edema thought to be due to treatment effect and not tumor progression. […] The patient's symptoms responded rapidly and completely to systemic corticosteroids. It was not known if this patient's symptoms were due to local progression or treatment-related toxicity. […] The patient was taken for surgical resection, and found to have no viable tumor. The resected lesion was thought to represent treatment-related necrosis.

[3] = Table 11, strong inhibitors or inducers of CYP3A4
[4] = Table 10, strong inhibitors and inducer of CYP2C8

NC(=O)N1c2ccccc2C=Cc2ccccc21 [Carbamazepine]
Elimination Half-life ([1]; Table 11, repeat dose): 12 to 17 h (repeat dose)
Elimination Half-life (hours) ([1]; Table 11, single dose): 25-65 hours (single does),

CC[C@H]1OC(=O)[C@H](C)[C@@H](O[C@H]2C[C@@](C)(OC)[C@@H](O)[C@H](C)O2)[C@H](C)[C@@H](O[C@@H]2O[C@H](C)C[C@H](N(C)C)[C@H]2O)[C@](C)(OC)C[C@@H](C)C(=O)[C@H](C)[C@@H](O)[C@]1(C)O [Clarithromycin]
Elimination Half-life [1, 3]: 3 to 7 h

COC(=O)[C@H](c1ccccc1Cl)N1CCc2sccc2C1 [Clopidogrel]
Elimination Half-life [1, 4]: 6 h

COc1ccc([C@@H]2Sc3ccccc3N(CCN(C)C)C(=O)[C@@H]2OC(C)=O)cc1 [Diltiazem]
Elimination Half-life [1, 3]: 3 to 4 h

Cc1ccc(C)c(OCCCC(C)(C)C(=O)O)c1 [Gemfibrozil]
Elimination Half-life [1, 4]: 1 to 2 h

CCC(C)n1ncn(-c2ccc(N3CCN(c4ccc(OCC5COC(Cn6cncn6)(c6ccc(Cl)cc6Cl)O5)cc4)CC3)cc2)c1=O (centres unmarked) [Itraconazole]
Elimination Half-life ([1]; Table 11, repeat dose): 34 to 42 h (repeat dose)
Elimination Half-life (hours) ([1]; Table 11, single dose): 16-28 hours (single dose),

CC(=O)N1CCN(c2ccc(OCC3COC(Cn4ccnc4)(c4ccc(Cl)cc4Cl)O3)cc2)CC1 (centres unmarked) [Ketoconazole (systemic), Ketoconazole]
Elimination Half-life [1, 3]: 2 to 8 h

CC(C)(O)c1ccccc1CC[C@@H](SCC1(CC(=O)O)CC1)c1cccc(/C=C/c2ccc3ccc(Cl)cc3n2)c1 [Montelukast]
Elimination Half-life [1, 4]: 3 to 6 h

CCc1nn(CCCN2CCN(c3cccc(Cl)c3)CC2)c(=O)n1CCOc1ccccc1 [Nefazodone]
Elimination Half-life [1, 3]: 2 to 4 h

O=C1NC(=O)C(c2ccccc2)(c2ccccc2)N1 [Phenytoin]
Elimination Half-life [1, 3]: 7 to 42 h

CC[C@@H]([C@H](C)O)n1ncn(-c2ccc(N3CCN(c4ccc(OC[C@@H]5CO[C@@](Cn6cncn6)(c6ccc(F)cc6F)C5)cc4)CC3)cc2)c1=O [Posoconazole]
Elimination Half-life [1, 3]: 27 to 35 h

COc1cc(Cc2cnc(N)nc2N)cc(OC)c1OC [Trimethoprim]
Elimination Half-life [1, 4]: 8 to 12 h

C[C@@H](c1ncncc1F)[C@](O)(Cn1cncn1)c1ccc(F)cc1F [Voriconazole]
Elimination Half-life (hours) [1, 3]: Dose dependent

Cc1cc(Nc2ncnc3ccc(NC4=NC(C)(C)CO4)cc23)ccc1Oc1ccn2ncnc2c1 [tucatinib]
Adverse findings reported in earlier tucatinib studies [2]: rare reports of asymptomatic cardiac failure; also recorded: Grade 3 and 4 elevation of LFTs had been seen in some patients

Troleanomycin
Elimination Half-life [1, 3]: 2 h
